In patent US9464120B2, “Compositions for treatment of celiac disease” (ImmusanT, Inc., priority 2008, dated 2016):
Each block holds one molecule with its values, some of them ahead of it. Square brackets hold non-standard residues; d marks the D form. Peptide text beside a SMILES is read from it. pGlu = O=C1CC[C@@H](C(=O)O)N1

Experiments:
[1] = Pharmacokinetics after bolus intradermal injection in an adult rat; assay type: in vivo; settings: rat, in vivo, 0.9 mg; for half-life: T1/2 half life
Method: To improve their chemical stability and increase resistance to exopeptidases, peptides were synthesised as acetate salts of “capped” N-pyroglutamate, C-amide: NPL001 (SEQ ID NO:228), NPL002 (SEQ ID NO:229) and NPL003 (SEQ ID NO:230) 15mers or 16mers with glutamate at sites predicted to be deamidated by tTG. Indeed, capping extended the half-lives of peptides from 10-12 minutes for free peptides: NPL033, NPL038, and NPL034 (SEQ ID NOs:13, 320 and 321) after bolus intradermal injection of 0.9 mg in 0.1 ml in an adult rat to 26-28 minutes with N-pyroglutamate and C-amidation (SEQ ID NOs:228, 229 and 230) or 19-24 minutes with N-acetylation and C-amidation (SEQ ID NOs:231, 232, and 233), (see Table 4).

[2] = tested on: gluten peptide-specific T cells in PBMC from HLA-DQ2+ celiac disease donors; test: IFNγ ELISpot of PBMC collected on day 6 after oral gluten challenge; assay type: cell-based, human; settings: for relative T-cell stimulatory activity: PBMC after wheat challenge, tTG pre-treated or glutamate substituted; for requirement for deamidation for T cell stimulation / dominance according to the grain consumed: second round libraries; for activity relative to α-gliadin p57-73 QE65: pre-treated with tTG or with glutamate at position 9, 25 μg/ml, mean±SEM, n=5 donors; for donors with IFNγ ELISpot response: 9 HLA DQ2 celiac disease donors, PBMC day 6 after wheat gluten challenge, 17mer and 33mer at 5 μM; for dominance according to the grain consumed: wheat, barley or rye gluten challenge
[3] = tested on: gluten peptide-specific T cells in PBMC from HLA-DQ2+ celiac disease donors; settings: day-6 PBMC, cited from earlier work

AUC area under the curve (bioavailability) [1]: AUC 2618 | half-life [1]: 10 to 12 min
Molecule: CC(C)C[C@H](NC(=O)[C@H](CCC(=O)O)NC(=O)[C@@H]1CCCN1C(=O)[C@H](CCC(N)=O)NC(=O)[C@@H]1CCCN1C(=O)[C@H](Cc1ccccc1)NC(=O)[C@@H]1CCCN1C(=O)[C@H](CCC(N)=O)NC(=O)[C@@H](N)CC(C)C)C(=O)N1CCC[C@H]1C(=O)N[C@@H](Cc1ccc(O)cc1)C(=O)N1CCC[C@H]1C(=O)N[C@@H](CCC(N)=O)C(=O)N1CCC[C@H]1C(=O)N[C@@H](CCC(N)=O)C(=O)O [NPL033, LQPFPQPELPYPQPQ] (H-LQPFPQPELPYPQPQ-OH)

Molecule: PQPQPFLPQLPYPQPQS (gluten derived peptide) [W09]
relative T-cell stimulatory activity [2]: almost as active as 17mers encompassing DQ2-α-II

Molecule: GQGQSGYYPTSPQQSG (W29)
requirement for deamidation for T cell stimulation [2]: Exceptions to the requirement for deamidation

Molecule: PQQPFPQPELPFPQQSE (deamidated AAG17702 (141-157)) [SEQ ID NO:29]
activity relative to α-gliadin p57-73 QE65 [2]: 32±6%

AUC area under the curve (bioavailability) [1]: AUC 22393 | T1/2 half life [1]: T1/2 13.2 minutes | half-life [1]: 10 to 12 min
Molecule: NC(=O)CC[C@H](NC(=O)[C@@H]1CCCN1)C(=O)N[C@@H](CCC(N)=O)C(=O)N1CCC[C@H]1C(=O)N[C@@H](Cc1ccccc1)C(=O)N1CCC[C@H]1C(=O)N[C@@H](CCC(N)=O)C(=O)N1CCC[C@H]1C(=O)N[C@@H](CCC(=O)O)C(=O)N[C@@H](CCC(N)=O)C(=O)N1CCC[C@H]1C(=O)N[C@@H](Cc1ccccc1)C(=O)N1CCC[C@H]1C(=O)N[C@@H](Cc1c[nH]c2ccccc12)C(=O)N[C@@H](CCC(N)=O)C(=O)N1CCC[C@H]1C(=O)O [NPL038, PQQPFPQPEQPFPWQP] (H-PQQPFPQPEQPFPWQP-OH)

AUC area under the curve (bioavailability) [1]: AUC 80263 | T1/2 half life [1]: T1/2 22.9 minutes | half-life [1]: 19 to 24 min
Molecule: CC(=O)N[C@@H](CCC(N)=O)C(=O)N[C@@H](CCC(N)=O)C(=O)N1CCC[C@H]1C(=O)N[C@@H](Cc1ccccc1)C(=O)N1CCC[C@H]1C(=O)N[C@@H](CCC(N)=O)C(=O)N1CCC[C@H]1C(=O)N[C@@H](CCC(=O)O)C(=O)N[C@@H](CCC(N)=O)C(=O)N1CCC[C@H]1C(=O)N[C@@H](Cc1ccccc1)C(=O)N1CCC[C@H]1C(=O)N[C@@H](Cc1c[nH]c2ccccc12)C(=O)N[C@@H](CCC(N)=O)C(=O)N1CCC[C@H]1C(N)=O [NPL031, Ac-QQPFPQPEQPFPWQP-amide] (Ac-QQPFPQPEQPFPWQP-NH2)

AUC area under the curve (bioavailability) [1]: AUC 43474 | T1/2 half life [1]: T1/2 19.4 minutes | half-life [1]: 19 to 24 min
Molecule: CC(=O)N[C@@H](CCC(N)=O)C(=O)N[C@@H](CC(C)C)C(=O)N[C@@H](CCC(N)=O)C(=O)N1CCC[C@H]1C(=O)N[C@@H](Cc1ccccc1)C(=O)N1CCC[C@H]1C(=O)N[C@@H](CCC(N)=O)C(=O)N1CCC[C@H]1C(=O)N[C@@H](CCC(=O)O)C(=O)N[C@@H](CC(C)C)C(=O)N1CCC[C@H]1C(=O)N[C@@H](Cc1ccc(O)cc1)C(=O)N1CCC[C@H]1C(=O)N[C@@H](CCC(N)=O)C(=O)N1CCC[C@H]1C(=O)N[C@@H](CCC(N)=O)C(N)=O [NPL030, Ac-QLQPFPQPELPYPQPQ-amide] (Ac-QLQPFPQPELPYPQPQ-NH2)

Molecule: PGQGQSGYYPTSPQQS (W24)
requirement for deamidation for T cell stimulation [2]: Exceptions to the requirement for deamidation

Molecule: QLQPFPQPELPYPQPQS (alpha-gliadin p57-73 QE65) [α-gliadin p57-73 QE65]
IFNγ ELISpot response relative to tTG-treated gliadin in 3/17 donors ([3]; 3/17 donors): less than 5% | Median IFNγ ELISpot response as percentage of that to tTG-treated gliadin (500 μg/ml) ([3]; n=17, range 0-155%): 51%

AUC area under the curve (bioavailability) [1]: AUC 81514 | T1/2 half life [1]: T1/2 27.18 minutes | half-life [1]: 26 to 28 min
Molecule: NC(=O)CC[C@H](NC(=O)[C@H](Cc1c[nH]c2ccccc12)NC(=O)[C@@H]1CCCN1C(=O)[C@H](Cc1ccccc1)NC(=O)[C@@H]1CCCN1C(=O)[C@H](CCC(N)=O)NC(=O)[C@H](CCC(=O)O)NC(=O)[C@@H]1CCCN1C(=O)[C@H](CCC(N)=O)NC(=O)[C@@H]1CCCN1C(=O)[C@H](Cc1ccccc1)NC(=O)[C@@H]1CCCN1C(=O)[C@H](CCC(N)=O)NC(=O)[C@@H]1CCC(=O)N1)C(=O)N1CCC[C@H]1C(N)=O [NPL002, pyroEQPFPQPEQPFPWQP-amide] ([pGlu]QPFPQPEQPFPWQP-NH2)
bioactivity after lysine-substitution of the central PQPEQPF sequence ([2]; 32 μg/ml, after wheat (n=7), barley (n=9) or rye challenge (n=10)): abolished the bioactivity | effect of anti-HLA-DQ / -DR preincubation on IFNγ ELISpot response ([2]; PBMC from HLA DQA1*05 DQB1*02 homozygotes and heterozygotes, data not shown): anti-HLA-DQ but not -DR abolished

Molecule: QLQPFPQPELPYPQPQL (variant of alpha-gliadin p57-73 QE65) [SEQ ID NO:46]
donors with IFNγ ELISpot response [2]: 7 donors

Molecule: QPQQPFPQPEQPFPWQP (Q3 E10 variant) [SEQ ID NO:54]
relative T-cell stimulatory activity [2]: optimal immunogenicity

half-life [1]: 10 to 12 min
Molecule: CC[C@H](C)[C@H](NC(=O)[C@@H]1CCCN1C(=O)[C@H](CCC(N)=O)NC(=O)[C@H](CCC(=O)O)NC(=O)[C@@H]1CCCN1C(=O)[C@@H](N)Cc1ccccc1)C(=O)N1CCC[C@H]1C(=O)N[C@@H](CCC(=O)O)C(=O)N[C@@H](CCC(N)=O)C(=O)N1CCC[C@H]1C(=O)N[C@@H](CCC(N)=O)C(=O)N1CCC[C@H]1C(=O)N[C@@H](Cc1ccc(O)cc1)C(=O)N1CCC[C@H]1C(=O)N[C@@H](CCC(N)=O)C(=O)N[C@@H](CCC(N)=O)C(=O)O [NPL034, FPEQPIPEQPQPYPQQ] (H-FPEQPIPEQPQPYPQQ-OH)

Molecule: LQLQPFPQPELPYPQPELPYPQPELPYPQPQPF (deamidated alpha2-gliadin 56-88) [33mer, reference compound]
donors with IFNγ ELISpot response [2]: 7 donors

AUC area under the curve (bioavailability) [1]: AUC 8206 | T1/2 half life [1]: T1/2 12.5 minutes | half-life [1]: 19 to 24 min
Molecule: CC[C@H](C)[C@H](NC(=O)[C@@H]1CCCN1C(=O)[C@H](CCC(N)=O)NC(=O)[C@H](CCC(=O)O)NC(=O)[C@@H]1CCCN1C(=O)[C@H](Cc1ccccc1)NC(C)=O)C(=O)N1CCC[C@H]1C(=O)N[C@@H](CCC(=O)O)C(=O)N[C@@H](CCC(N)=O)C(=O)N1CCC[C@H]1C(=O)N[C@@H](CCC(N)=O)C(=O)N1CCC[C@H]1C(=O)N[C@@H](Cc1ccc(O)cc1)C(=O)N1CCC[C@H]1C(=O)N[C@@H](CCC(N)=O)C(=O)N[C@@H](CCC(N)=O)C(N)=O [NPL032, Ac-FPEQPIPEQPQPYPQQ-amide] (Ac-FPEQPIPEQPQPYPQQ-NH2)

Molecule: QGQQGYYPISPQQSGQ (W21)
requirement for deamidation for T cell stimulation [2]: Exceptions to the requirement for deamidation

Molecule: PQQPIPEQPQPYPQQP (B08-E7)
dominance according to the grain consumed [2]: only after barley gluten challenge

Molecule: QPFPQQPEQIIPQQ (gluten derived peptide) [SEQ ID NO:323]
dominance according to the grain consumed [2]: only after rye gluten challenge

Molecule: PQPQPFLPELPYPQPQS (gluten derived peptide) [SEQ ID NO:26]
relative T-cell stimulatory activity [2]: almost as active as 17mers encompassing DQ2-α-II

Molecule: QGQPGYYPTSPQQIGQ (W22)
requirement for deamidation for T cell stimulation [2]: Exceptions to the requirement for deamidation

Molecule: QPEQPFPQPEQPFPWQP (W03-E7)
relative T-cell stimulatory activity [2]: equivalent in bioactivity | dominance according to the grain consumed [2]: universal dominant T cell stimulatory peptide in gluten

Molecule: QYEVIRSLVRTLPNM (QYEVIRSLVLRTLPNM; W36)
requirement for deamidation for T cell stimulation [2]: Exceptions to the requirement for deamidation

half-life [1]: 26 to 28 min
Molecule: CC[C@H](C)[C@H](NC(=O)[C@@H]1CCCN1C(=O)[C@H](CCC(N)=O)NC(=O)[C@H](CCC(=O)O)NC(=O)[C@@H]1CCCN1C(=O)[C@@H]1CCC(=O)N1)C(=O)N1CCC[C@H]1C(=O)N[C@@H](CCC(=O)O)C(=O)N[C@@H](CCC(N)=O)C(=O)N1CCC[C@H]1C(=O)N[C@@H](CCC(N)=O)C(=O)N1CCC[C@H]1C(=O)N[C@@H](Cc1ccc(O)cc1)C(=O)N1CCC[C@H]1C(=O)N[C@@H](CCC(N)=O)C(=O)N[C@@H](CCC(N)=O)C(N)=O [NPL003, pyroEPEQPIPEQPQPYPQQ-amide] ([pGlu]PEQPIPEQPQPYPQQ-NH2)

Molecule: 15mer encompassing deamidated DQ2-γ-IV: deamidated 15mer encompassing the epitope DQ2-γ-IV SQPEQEFPQ reported for intestinal T cell clones [reference compound]
donors with IFNγ ELISpot response [2]: One

Molecule: PQQPFPQPQLPFPQQSE (AAG17702 (141-157))
activity relative to α-gliadin p57-73 QE65 [2]: 32±6%

Molecule: QLQPFPQPELPYPQPQP (gluten derived peptide) [SEQ ID NO:225]
dominance according to the grain consumed [2]: dominant only after wheat gluten challenge
